Experimental data from article PMC7576618 (British Journal of Clinical Pharmacology, 2020).

Tests used:
healthy subjects [1] = experiment: SAD study: safety and tolerability; format: in vivo, human
healthy subjects [2] = experiment: MAD study: safety and tolerability; format: in vivo, human
[3] = monkeys; cited from earlier work
[4] = SAD Parts A and C, Total TS‐134 fed (n = 8)
[5] = SAD, 20 mg fasted treatment group
[6] = MAD Cohort 1, 5–10 mg fed (n = 8)
[7] = MAD Cohort 2, 5–20 mg fed (n = 8)
[8] = MAD Cohort 3, 5–40 mg fed (n = 8)
[9] = MAD Cohort 4, 5–60 mg fed (n = 8)
[10] = MAD Cohort 5, 10–80 mg fed (n = 8)
[11] = MAD Cohort 6, 10–80 mg fed (n = 7)
[12] = MAD, 80 mg MP in Cohort 5, data not shown

CC(C)[C@@H]1CC[C@@H](C)C[C@H]1OC(=O)O[C@@H](C)OC(=O)[C@H]1[C@@H]2C[C@H](F)[C@@](N)(C(=O)O)[C@@H]21.O=S(=O)(O)c1ccccc1 [TS‐134, (1S,2S,3S,5R,6S)‐2‐amino‐3‐ fluoro‐6‐({(1S)‐1‐[({[(1R,2S,5R)‐5‐methyl‐2‐(propan‐2‐yl)cyclohexyl]oxy}carbonyl)oxy]ethoxy}carbonyl)bicyclo[3.1.0]hexane‐2‐carboxylic acid monobenzenesulfonate]
Somnolence (healthy subjects [1]; [4]): 0 Number of subjects (%) | Total number of TEAEs (healthy subjects [1]; [4]): 7 | Vomiting (healthy subjects [1]; [4]): 1 (12.5) Number of subjects (%) | reports of severe nausea (healthy subjects [1]; [5]): 1 report | reports of severe vomiting (healthy subjects [1]; [5]): 2 reports | dose up to which a single dose was tolerated (healthy subjects [1]; SAD, single oral dose TS‐134 solution): up to 10 mg | deaths or serious adverse events (healthy subjects [1]; both studies): no deaths or serious adverse events | dose up to which multiple dose titration was tolerated (healthy subjects [2]; 14‐day MAD, titration schemes under fed conditions): up to 80 mg | Abnormal dreams (healthy subjects [2]; [6]): 0 Number of subjects (%) | Dizziness (healthy subjects [2]; [6]): 0 Number of subjects (%) | Headache (healthy subjects [2]; [6]): 1 (12.5) Number of subjects (%) | Insomnia (healthy subjects [2]; [6]): 0 Number of subjects (%) | Nausea (healthy subjects [2]; [6]): 2 (25.0) Number of subjects (%) | Number of subjects with at least 1 TEAE (healthy subjects [2]; [6]): 5 (62.5) Number of subjects (%) | Post lumbar puncture syndrome (healthy subjects [2]; [6]): 0 Number of subjects (%) | Pruritus (healthy subjects [2]; [6]): 0 Number of subjects (%) | Somnolence (healthy subjects [2]; [6]): 3 (37.5) Number of subjects (%) | Total number of TEAEs (healthy subjects [2]; [6]): 11 | Vomiting (healthy subjects [2]; [6]): 0 Number of subjects (%) | Abnormal dreams (healthy subjects [2]; [7]): 0 Number of subjects (%) | Dizziness (healthy subjects [2]; [7]): 1 (12.5) Number of subjects (%) | Headache (healthy subjects [2]; [7]): 3 (37.5) Number of subjects (%) | Insomnia (healthy subjects [2]; [7]): 0 Number of subjects (%) | Nausea (healthy subjects [2]; [7]): 3 (37.5) Number of subjects (%) | Number of subjects with at least 1 TEAE (healthy subjects [2]; [7]): 5 (62.5) Number of subjects (%) | Post lumbar puncture syndrome (healthy subjects [2]; [7]): 0 Number of subjects (%) | Pruritus (healthy subjects [2]; [7]): 0 Number of subjects (%) | Somnolence (healthy subjects [2]; [7]): 1 (12.5) Number of subjects (%) | Total number of TEAEs (healthy subjects [2]; [7]): 17 | Vomiting (healthy subjects [2]; [7]): 0 Number of subjects (%) | Abnormal dreams (healthy subjects [2]; [8]): 0 Number of subjects (%) | Dizziness (healthy subjects [2]; [8]): 3 (37.5) Number of subjects (%) | Headache (healthy subjects [2]; [8]): 3 (37.5) Number of subjects (%) | Insomnia (healthy subjects [2]; [8]): 0 Number of subjects (%) | Nausea (healthy subjects [2]; [8]): 2 (25.0) Number of subjects (%) | Number of subjects with at least 1 TEAE (healthy subjects [2]; [8]): 5 (62.5) Number of subjects (%) | Post lumbar puncture syndrome (healthy subjects [2]; [8]): 0 Number of subjects (%) | Pruritus (healthy subjects [2]; [8]): 0 Number of subjects (%) | Somnolence (healthy subjects [2]; [8]): 1 (12.5) Number of subjects (%) | Total number of TEAEs (healthy subjects [2]; [8]): 16 | Vomiting (healthy subjects [2]; [8]): 1 (12.5) Number of subjects (%) | Abnormal dreams (healthy subjects [2]; [9]): 2 (25.0) Number of subjects (%) | Dizziness (healthy subjects [2]; [9]): 1 (12.5) Number of subjects (%) | Headache (healthy subjects [2]; [9]): 5 (62.5) Number of subjects (%) | Insomnia (healthy subjects [2]; [9]): 3 (37.5) Number of subjects (%) | Nausea (healthy subjects [2]; [9]): 3 (37.5) Number of subjects (%) | Number of subjects with at least 1 TEAE (healthy subjects [2]; [9]): 8 (100) Number of subjects (%) | Post lumbar puncture syndrome (healthy subjects [2]; [9]): 0 Number of subjects (%) | Pruritus (healthy subjects [2]; [9]): 1 (12.5) Number of subjects (%) | Somnolence (healthy subjects [2]; [9]): 1 (12.5) Number of subjects (%) | Total number of TEAEs (healthy subjects [2]; [9]): 26 | Vomiting (healthy subjects [2]; [9]): 2 (25.0) Number of subjects (%) | Abnormal dreams (healthy subjects [2]; [10]): 0 Number of subjects (%) | Dizziness (healthy subjects [2]; [10]): 0 Number of subjects (%) | Headache (healthy subjects [2]; [10]): 3 (37.5) Number of subjects (%) | Insomnia (healthy subjects [2]; [10]): 0 Number of subjects (%) | Nausea (healthy subjects [2]; [10]): 3 (37.5) Number of subjects (%) | Number of subjects with at least 1 TEAE (healthy subjects [2]; [10]): 7 (87.5) Number of subjects (%) | Post lumbar puncture syndrome (healthy subjects [2]; [10]): 0 Number of subjects (%) | Pruritus (healthy subjects [2]; [10]): 0 Number of subjects (%) | Somnolence (healthy subjects [2]; [10]): 1 (12.5) Number of subjects (%) | Total number of TEAEs (healthy subjects [2]; [10]): 30 | Vomiting (healthy subjects [2]; [10]): 0 Number of subjects (%) | Abnormal dreams (healthy subjects [2]; [11]): 0 Number of subjects (%) | Dizziness (healthy subjects [2]; [11]): 3 (42.9) Number of subjects (%) | Headache (healthy subjects [2]; [11]): 1 (14.3) Number of subjects (%) | Insomnia (healthy subjects [2]; [11]): 1 (14.3) Number of subjects (%) | Nausea (healthy subjects [2]; [11]): 2 (28.6) Number of subjects (%) | Number of subjects with at least 1 TEAE (healthy subjects [2]; [11]): 6 (85.7) Number of subjects (%) | Post lumbar puncture syndrome (healthy subjects [2]; [11]): 0 Number of subjects (%) | Pruritus (healthy subjects [2]; [11]): 3 (42.9) Number of subjects (%) | Somnolence (healthy subjects [2]; [11]): 2 (28.6) Number of subjects (%) | Total number of TEAEs (healthy subjects [2]; [11]): 25 | Vomiting (healthy subjects [2]; [11]): 0 Number of subjects (%) | Abnormal dreams (healthy subjects [2]; MAD Total TS‐134 (n = 47)): 2 (4.3) Number of subjects (%) | Dizziness (healthy subjects [2]; MAD Total TS‐134 (n = 47)): 8 (17.0) Number of subjects (%) | Headache (healthy subjects [2]; MAD Total TS‐134 (n = 47)): 16 (34.0) Number of subjects (%) | Insomnia (healthy subjects [2]; MAD Total TS‐134 (n = 47)): 4 (8.5) Number of subjects (%) | Nausea (healthy subjects [2]; MAD Total TS‐134 (n = 47)): 15 (31.9) Number of subjects (%) | Number of subjects with at least 1 TEAE (healthy subjects [2]; MAD Total TS‐134 (n = 47)): 36(76.6) Number of subjects (%) | Post lumbar puncture syndrome (healthy subjects [2]; MAD Total TS‐134 (n = 47)): 0 Number of subjects (%) | Pruritus (healthy subjects [2]; MAD Total TS‐134 (n = 47)): 4 (8.5) Number of subjects (%) | Somnolence (healthy subjects [2]; MAD Total TS‐134 (n = 47)): 9 (19.1) Number of subjects (%) | Total number of TEAEs (healthy subjects [2]; MAD Total TS‐134 (n = 47)): 125 | Vomiting (healthy subjects [2]; MAD Total TS‐134 (n = 47)): 3 (6.4) Number of subjects (%) | discontinuations due to TEAEs (healthy subjects [2]; MAD study): no discontinuations due to TEAEs | reports of severe anxiety (healthy subjects [2]; [12]): 1 report | reports of severe fatigue (healthy subjects [2]; [12]): 1 report | incidence of dizziness (healthy subjects [2]; MAD, total TS‐134 group): 17.0% | incidence of headache (healthy subjects [2]; MAD, total TS‐134 group): 34.0% | incidence of nausea (healthy subjects [2]; MAD, total TS‐134 group): 31.9% | incidence of somnolence (healthy subjects [2]; MAD, total TS‐134 group): 19.1% | incidence of vomiting (healthy subjects [2]; MAD, total TS‐134 group): 6.4% | conversion of the prodrug into MGS0008 after oral administration [3]: rapidly converted into MGS0008
